Results published in US9861640B2, “Medicament for treatment of Alzheimer's disease” (KEMPHYS LTD., priority 2013, dated 2018).

Tests used:
IDE = assay: Immunoblot of IDE in brains of APP23 mice; format: in vivo, mouse; settings: day 18, vs vehicle-treated APP23 mice, P<0.05
Description: APP23 mice begin forming amyloid deposits when they are 6 months old, but memory deficits in the MWM test appear quite early (before 3 months of age). Here, we used 8.5-month-old male APP23 mice and their WT littermates (C57BL/6J). We used stratified random sampling to divide mice (four to six per cage) into four groups to equalize the mean body weight of the study groups: mice given 0.5 mg/kg/d Am80, those given 5 mg/kg/d HX630, those given the mixture of 0.5 mg/kg/d Am80 and 5 mg/kg/d HX630, and those given the vehicle. Am80 and HX630 were suspended in 0.5% (w/v) carboxymethylcellulose solution and were orally administered to mice at 0.5 mg/kg (Am80) or 5 mg/kg (HX630) for 17 consecutive days (once daily at 18:00). Control animals received the same volume of 0.5% (w/v) carboxymethylcellulose solution orally, without the other compounds. We set the 0.5 mg/kg/d dose for Am80 on the basis that this had been found effective in other in vivo studies, such as those by Kawahara et al. and Ishido and Shudo [37]. Higher doses of Am80 (3 mg/kg/d and 6 mg/kg/d) were also orally administered to mice for 17 consecutive days. Animals were weighed once a week. Mice were subjected to behavioral testing on days 15-18 of the first oral administration of the compounds (at 19:00-23:00). On days 15-17 (not day 18), animals received the compounds at 24:00, after behavioral testing. […]

IL-4 = IL-4 sandwich ELISA of hippocampus, correlation with MWM; format: in vivo, mouse; settings: APP23 mice; day 18; P=0.096 (HX630), P=0.087 (Am80/HX630)
[1] = tested on: RA response element (RARE); assay: RARE luciferase reporter gene assay in Neuro2a cells; format: cell-based, mouse; settings: Am80 0.2-5 μM, with or without HX630 5 μM, 24 h
Description: Since the effective concentration of Am80 in vivo has not been determined, we considered that a relatively high concentration of Am80 should be used in the in vitro study in order to ensure adequate stimulation. […] Moreover, the combination of HX630 (5 μM) with Am80 in the range of 0.2-5 μM also had little effect. Therefore, the concentrations of Am80 and HX630 were both set at 5 μM for the in vitro study.
Neuro2a cells were seeded in 24-well plates (2×10^5 cells/well) and transfected with 0.2 μg of pGL3-RARE-Luc (#13468; Addgene) or pGL3-Luc vector (Promega) and 0.05 μg of Renilla luciferase vector (phRL-TK) (Promega), using Effectene reagent (Qiagen) according to the manufacturer's protocol. Five hours after transfection, cells were exposed to Am80 (5 μM) and/or HX630 (5 μM) in the medium for 24 h. Luciferase activities were determined in cell lysates. Firefly luciferase activity was normalized to that of Renilla luciferase for each well.

RARγ = RARγ (Homo sapiens, UniProt P13631); settings: [50]; cited from earlier work
[2] = normal male rats; 2 h after subcutaneous administration at 1 mg/kg; cited from earlier work
RXRs = settings: cited from earlier work
Aβ40 and Aβ42 = Aβ40 and Aβ42 sandwich ELISA of TBS-soluble and TBS-insoluble brain fractions; format: in vivo, mouse; settings: Am80 alone 3 mg/kg/d or 6 mg/kg/d for 17 days, oral
Description: APP23 mice begin forming amyloid deposits when they are 6 months old, but memory deficits in the MWM test appear quite early (before 3 months of age). Here, we used 8.5-month-old male APP23 mice and their WT littermates (C57BL/6J). We used stratified random sampling to divide mice (four to six per cage) into four groups to equalize the mean body weight of the study groups: mice given 0.5 mg/kg/d Am80, those given 5 mg/kg/d HX630, those given the mixture of 0.5 mg/kg/d Am80 and 5 mg/kg/d HX630, and those given the vehicle. […]
The TBS-soluble (TBS-extractable) fraction and the TBS-insoluble (but guanidine HC1-extractable) fraction from the cerebral hemispheres or hippocampus were prepared as described previously. The amounts of Aβ40 and Aβ42 in each fraction were determined by using sandwich ELISAs (294-64701 and 290-62601 (Wako), respectively), according to the manufacturer's instructions. The amounts of tumor necrosis factor-α (TNF-α) and IL-4 in the TBS-soluble fractions of cerebral cortex and hippocampus were analyzed by means of sandwich ELISAs KMC3012 (Invitrogen) and ELM-IL-4-001 (RayBiotech, Inc., Norcros, Ga., USA), respectively, according to the manufacturer's instructions. Protein concentrations were determined with the Bradford Protein Assay Reagent (Thermo Fisher Scientific Inc., Rockford, Ill., USA), with BSA as the standard.

APP23 mice = settings: earlier study [15]; oral Am80 0.5 mg/kg/d for 14 weeks; 5-month-old APP23 mice; cited from earlier work

Chain of RARγ (P13631 whole entry, species assumed): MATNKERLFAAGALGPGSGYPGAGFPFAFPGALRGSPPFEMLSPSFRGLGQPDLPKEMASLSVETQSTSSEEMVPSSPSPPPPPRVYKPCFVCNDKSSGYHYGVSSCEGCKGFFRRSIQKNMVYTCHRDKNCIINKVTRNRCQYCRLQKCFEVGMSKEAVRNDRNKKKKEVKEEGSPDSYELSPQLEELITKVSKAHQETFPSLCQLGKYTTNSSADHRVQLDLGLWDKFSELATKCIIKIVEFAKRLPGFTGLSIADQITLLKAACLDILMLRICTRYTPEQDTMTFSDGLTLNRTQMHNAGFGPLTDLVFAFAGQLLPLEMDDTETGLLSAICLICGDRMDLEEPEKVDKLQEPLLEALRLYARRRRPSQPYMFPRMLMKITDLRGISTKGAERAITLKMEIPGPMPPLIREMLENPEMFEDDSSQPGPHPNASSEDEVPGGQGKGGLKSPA

Question: With `CN1c2ccccc2N=C(c2ccc(C(=O)O)cc2)c2cc3c(cc21)C(C)(C)CCC3(C)C` [HX630, 4-[5H-2,3-(2,5dimethyl-2,5-hexano)-5-methyldibenzo[b,e]-diazepin-11-yl]benzoic acid] as the compound, how does the “IDE protein level in the membrane-bound fraction” value (IDE) read?
Answer: The value was “increased significantly”.

Question: And the “hippocampal IL-4 levels” value (IL-4)?
Answer: The value was “the increase was statistically insignificant”.

Question: Which results are given for `CC1(C)CCC(C)(C)c2cc(NC(=O)c3ccc(C(=O)O)cc3)ccc21` [Am80, 4-{(5,6,7,8-tetrahydro-5,5,8,8-tetramethyl-2-naphthalenyl)carbamoyl}benzoic acid]?
Answer: RARE-luciferase activity in Neuro2a cells [1]: hardly altered; binding to RARγ (RARγ): hardly binds; cerebral tissue content of Am80 [2]: around 100 pmol/g tissue; binding affinity for RXRs (and RARγ) (RXRs): little or no binding affinity; Aβ levels in APP23 mice, higher dose (Aβ40 and Aβ42): neither reduced Aβ levels; behavioral benefits (APP23 mice): did not detect behavioral benefits
